Measurements taken from ChEMBL document CHEMBL5131496, “Adiponectin-Secretion-Promoting Cyclic Peptide-Polyketide Hybrids from a Halophyte-Associated Fungus, Colletotrichum gloeosporioides JS0417” (J Nat Prod, 2022).
pEC50, pIC50: −log10 of the molar value. Activity calls are given as the source filed them. The rule behind the calls is not given here.

How the values were obtained:
Mesenchymal stem cells [1] = test: Induction of adiponectin secretion in human differentiated BMMSC cells measured at 5 day in the presence of IDX induction medium by ELISA; assay type: functional, cell-based; details: for pEC50: 120 h
Mesenchymal stem cells [2] = test: Induction of adiponectin secretion in human differentiated BMMSC cells assessed as increase in size of lipid droplet at 30 uM in the presence of IDX induction medium by Oil red O staining based inverted phase contrast microscope analysis; assay type: functional, cell-based
Mesenchymal stem cells [3] = test: Induction of adiponectin secretion in human differentiated BMMSC cells assessed as increase in number of lipid droplet at 30 uM in the presence of IDX induction medium by Oil red O staining based inverted phase contrast microscope analysis; assay type: functional, cell-based
Mesenchymal stem cells [4] = test: Induction of adiponectin secretion in human differentiated BMMSC cells at 30 uM in the presence of IDX induction medium and measured on 5 day by ELISA relative to control; assay type: functional
Mesenchymal stem cells [5] = test: Induction of adiponectin secretion in human differentiated BMMSC cells assessed as increase in lipid droplet accumulation at 300 uM in the presence of IDX induction medium by Oil red O staining based inverted phase contrast microscope analysis; assay type: functional, cell-based
HaCaT [6] = test: Antiinflammatory activity against human HaCaT cells assessed as inhibition of UVB irradiation-induced PGE2 production at 10 uM measured after 2 hrs by ELISA; assay type: functional, cell-based
HaCaT [7] = test: Antiinflammatory activity against human HaCaT cells assessed as inhibition of UVB irradiation-induced PGE2 production measured after 2 hrs by ELISA; assay type: functional, cell-based; details: light or radiation study

Structure (SMILES) | pEC50 (Mesenchymal stem cells [1]) | Activity (Mesenchymal stem cells [4]) [%] | pIC50 (HaCaT [7]) | other results
CC[C@H](C)[C@H]1C(=O)O[C@H]([C@@H](C)CCCC[C@@H](C)O)C[C@@H](O)[C@@H](C)C(=O)N[C@H](Cc2ccccc2)C(=O)N1C | 4.64 | 123 | – | Activity (Mesenchymal stem cells [2]): Active; Activity (Mesenchymal stem cells [3]): Active
CCC(C)/C=C/CC(C)/C=C/C(=O)O[C@@H]1[C@@H](O)[C@H](c2c(C)cc(O)cc2O)O[C@H](CO)[C@H]1O (stereo partly drawn) | – | 78 | – | –
COc1ccc(Cl)cc1C(=O)NCCc1ccc(S(=O)(=O)NC(=O)NC2CCCCC2)cc1 [GLYBURIDE] | 5.55 | – | – | –
OCCc1c[nH]c2ccccc12 [TRYPTOPHOL] | – | – | 5.18 | Activity (Mesenchymal stem cells [1]; DDE = dose-dependent effect): Dde; Activity (Mesenchymal stem cells [5]): Active; Activity (HaCaT [6]): Active
CC(=O)Oc1ccccc1C(=O)O [ASPIRIN] | < 3.52 | – | 4.67 | Activity (Mesenchymal stem cells [5]): Active
CC(C)C[C@H]1NC(=O)[C@H](C)[C@H](O)C[C@@H]([C@@H](C)CCCC[C@@H](C)O)OC(=O)[C@H](CC(C)C)N(C)C1=O | 4.53 | 116 | – | Activity (Mesenchymal stem cells [2]): Active; Activity (Mesenchymal stem cells [3]): Active
Oc1ccc(/C=C/c2cc(O)cc(O)c2)cc1 [RESVERATROL] | – | – | 4.74 | –
